Results taken from patent US8431568B2, “Aromatic heterocyclic fused indolobenzadiazepine HCV NS5B inhibitors” (Bristol-Myers Squibb Company, priority 2008, dated 2013).

How the values were obtained:
[1] = target: T1, HCV NS5B RdRp genotype 1b (Hepatitis C virus genotype 1b, UniProt Q9WMX2); assay: Modified HCV NS5B RdRp enzyme assay (preincubation protocol); type: biochemical
T1 construct: The protein was expressed with an 18 amino acid C-terminal truncation to enhance the solubility; made in house; host or cells: E. coli BL21(DE3), pET21a vector
Protocol: HCV NS5B RdRp Cloning, Expression, and Purification.
The cDNA encoding the NS5B protein of HCV, genotype 1b, was cloned into the pET21a expression vector. The protein was expressed with an 18 amino acid C-terminal truncation to enhance the solubility. The E. coli competent cell line BL21(DE3) was used for expression of the protein. Cultures were grown at 37° C. for ˜4 hours until the cultures reached an optical density of 2.0 at 600 nm. The cultures were cooled to 20° C. and induced with 1 mM IPTG. Fresh ampicillin was added to a final concentration of 50 μg/ml and the cells were grown overnight at 20° C.
Cell pellets (3 L) were lysed for purification to yield 15-24 mgs of purified NS5B. The lysis buffer consisted of 20 mM Tris-HCl, pH 7.4, 500 mM NaCl, 0.5% triton X-100, 1 mM DTT, 1 mM EDTA, 20% glycerol, 0.5 mg/ml lysozyme, 10 mM MgCl2, 15 ug/ml deoxyribonuclease I, and Complete TM protease inhibitor tablets (Roche). After addition of the lysis buffer, frozen cell pellets were resuspended using a tissue homogenizer. To reduce the viscosity of the sample, aliquots of the lysate were sonicated on ice using a microtip attached to a Branson sonicator. The sonicated lysate was centrifuged at 100,000×g for 1 hr at 4° C. and filtered through a 0.2 μm filter unit (Corning).
The protein was purified using three sequential chromatography steps: Heparin sepharose CL-6B, polyU sepharose 4B, and Hitrap SP sepharose (Pharmacia). The chromatography buffers were identical to the lysis buffer but contained no lysozyme, deoxyribonuclease I, MgCl2 or protease inhibitor and the NaCl concentration of the buffer was adjusted according to the requirements for charging the protein onto the column. Each column was eluted with a NaCl gradient which varied in length from 5-50 column volumes depending on the column type. After the final chromatography step, the resulting purity of the enzyme is >90% based on SDS-PAGE analysis. The enzyme was aliquoted and stored at −80° C.
Standard HCV NS5B RdRp Enzyme Assay.
HCV RdRp genotype 1b assays were run in a final volume of 60 μl in 96 well plates (Costar 3912). The assay buffer is composed of 20 mM Hepes, pH 7.5, 2.5 mM KCl, 2.5 mM MgCl2, 1 mM DTT, 1.6 U RNAse inhibitor (Promega N2515), 0.1 mg/ml BSA (Promega R3961), and 2% glycerol. All compounds were serially diluted (3-fold) in DMSO and diluted further in water such that the final concentration of DMSO in the assay was 2%. HCV RdRp genotype 1b enzyme was used at a final concentration of 28 nM. A polyA template was used at 6 nM, and a biotinylated oligo-dT12 primer was used at 180 nM final concentration. Template was obtained commercially (Amersham 27-4110). Biotinylated primer was prepared by Sigma Genosys. 3H-UTP was used at 0.6 μCi (0.29 μM total UTP). Reactions were initiated by the addition of enzyme, incubated at 30° C. for 60 min, and stopped by adding 25 μl of 50 mM EDTA containing SPA beads (4 μg/μl, Amersham RPNQ 0007). Plates were read on a Packard Top Count NXT after >1 hr incubation at room temperature.
Modified HCV NS5B RdRp Enzyme Assay.
A modified enzyme assay was performed essentially as described for the standard enzyme assay except for the following: The biotinylated oligo dT12 primer was precaptured on streptavidin-coated SPA beads by mixing primer and beads in assay buffer and incubating at room temperature for one hour. Unbound primer was removed after centrifugation. The primer-bound beads were resuspended in 20 mM Hepes buffer, pH 7.5 and used in the assay at final concentrations of 20 nM primer and 0.67 μg/μl beads. Order of addition in the assay: enzyme (14 nM) was added to diluted compound followed by the addition of a mixture of template (0.2 nM), 3H-UTP (0.6 μCi, 0.29 μM), and primer-bound beads, to initiate the reaction; concentrations given are final. Reactions were allowed to proceed for 4 hours at 30° C.
IC50 values for compounds were determined using seven different [I]. […]

HCV replicon cells = assay: HCV replicon FRET assay; type: cell-based; conditions: Hepatitis C virus
From the text: To perform the HCV FRET screening assay, 96-well cell culture plates were used. The FRET peptide (Anaspec, Inc.) (Taliani et al., Anal. Biochem. 1996, 240, 60-67) contains a fluorescence donor, EDANS, near one end of the peptide and an acceptor, DABCYL, near the other end. The fluorescence of the peptide is quenched by […] resonance energy transfer (RET) between the donor and the acceptor, but as the NS3 protease cleaves the peptide the products are released from RET quenching and the fluorescence of the donor becomes apparent. The assay reagent was made as follows: 5× cell Luciferase cell culture lysis reagent from Promega (#E153A) diluted to 1× with dH2O, NaCl added to 150 mM final, the FRET peptide diluted to 20 uM final from a 2 mM stock.
To prepare plates, HCV replicon cells, with or without a Renilla luciferase reporter gene, were trypsinized and placed into each well of a 96-well plate with titrated test compounds added in columns 3 through 12; columns 1 and 2 contained a control compound (HCV protease inhibitor), and the bottom row contained cells without compound. The plates were then placed in a CO2 incubator at 37° C.
Subsequent to addition of the test compounds described above (FRET Assay Preparation), at various times the plate was removed and Alamar blue solution (Trek Diagnostics, #00-100) was added per well as a measure of cellular toxicity. After reading in a Cytoflour 4000 instrument (PE Biosystems), plates were rinsed with PBS and then used for FRET assay by the addition of 30 ul of the FRET peptide assay reagent described above (FRET Assay Preparation) per well. The plate was then placed into the Cytoflour 4000 instrument which had been set to 340 excite/490 emission, automatic mode for 20 cycles and the plate read in a kinetic mode. Typically, the signal to noise using an endpoint analysis after the reads was at least three-fold. Alternatively, after Alamar blue reading, plates were rinsed with PBS, 50 ul of DMEM (high glucose) without phenol red was added and plates were then used for luciferase assay using the Promega Dual-Glo Luciferase Assay System.
Compound analysis was determined by quantification of the relative HCV replicon inhibition and the relative cytotoxicity values. To calculate cytoxicity values, the average Alamar Blue fluorescence signals from the control wells were set as 100% non-toxic. The individual signals in each of the compound test wells were then divided by the average control signal and multiplied by 100% to determine […]. To calculate the HCV replicon inhibition values, an average background value was obtained from the two wells containing the highest amount of HCV protease inhibitor at the end of the assay period. These numbers were similar to those obtained from naïve Huh-7 cells.
The background numbers were then subtracted from the average signal obtained from the control wells and this number was used as 100% activity. The individual signals in each of the compound test wells were then divided by the averaged control values after background subtraction and multiplied by 100% to determine percent activity. EC50 values for a protease inhibitor titration were calculated as the concentration which caused a 50% reduction in FRET or luciferase activity. The two numbers generated for the compound plate, percent cytoxicity and percent activity were used to determine compounds of interest for further analysis.

T1 sequence (Q9WMX2 2420-2992): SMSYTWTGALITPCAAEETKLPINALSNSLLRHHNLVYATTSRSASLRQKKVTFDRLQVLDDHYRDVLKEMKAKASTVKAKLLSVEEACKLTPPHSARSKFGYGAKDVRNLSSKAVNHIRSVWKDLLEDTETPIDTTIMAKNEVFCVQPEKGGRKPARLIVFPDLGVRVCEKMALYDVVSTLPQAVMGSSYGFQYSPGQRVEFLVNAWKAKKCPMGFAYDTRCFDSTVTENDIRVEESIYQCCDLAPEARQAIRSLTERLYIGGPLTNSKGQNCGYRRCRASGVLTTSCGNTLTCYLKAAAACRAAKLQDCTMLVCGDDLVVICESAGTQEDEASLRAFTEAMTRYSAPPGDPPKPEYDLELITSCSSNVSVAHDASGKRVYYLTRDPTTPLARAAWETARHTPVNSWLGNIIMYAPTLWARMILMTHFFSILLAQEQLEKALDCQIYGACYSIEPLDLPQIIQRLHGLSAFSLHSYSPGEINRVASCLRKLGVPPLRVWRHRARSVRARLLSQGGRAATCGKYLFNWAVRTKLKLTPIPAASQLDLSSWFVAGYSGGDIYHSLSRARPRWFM

Compound | IC50 [1] | EC50 (HCV replicon cells)
Cc1cn2c(n1)Cn1c(c(C3CCCCC3)c3ccc(C(=O)O)cc31)-c1ccccc1-2 [Example 7, 10-Cyclohexyl-2-methyl-4H-imidazo[1,2-a]indolo[1,2-d][1,4]benzodiazepine-7-carboxylic acid] | 130 nM | 2850 nM
Cc1cn2c(n1)Cn1c(c(C3CCCCC3)c3ccc(C(=O)NS(=O)(=O)N(C)C)cc31)-c1ccccc1-2 [Example 8, 10-Cyclohexyl-N-((dimethylamino)sulfonyl)-2-methyl-4H-imidazo[1,2-a]indolo[1,2-d][1,4]benzodiazepine-7-carboxamide] | 33 nM | 710 nM
Cc1nnc2n1-c1ccccc1-c1c(C3CCCCC3)c3ccc(C(=O)O)cc3n1C2 [Example 3, 10-Cyclohexyl-1-methyl-4H-indolo[1,2-d][1,2,4]triazolo[4,3-a][1,4]benzodiazepine-7-carboxylic acid] | 170 nM | 770 nM
CN(C)S(=O)(=O)NC(=O)c1ccc2c(C3CCCCC3)c3n(c2c1)Cc1nncn1-c1ccccc1-3 [Example 2, 10-Cyclohexyl-N-((dimethylamino)sulfonyl)-4H-indolo[1,2-d][1,2,4]triazolo[4,3-a][1,4]benzodiazepine-7-carboxamide] | 20 nM | 160 nM
Cc1nnc2n1-c1ccccc1-c1c(C3CCCCC3)c3ccc(C(=O)NS(=O)(=O)N(C)C)cc3n1C2 [Example 4, 10-Cyclohexyl-N-((dimethylamino)sulfonyl)-1-methyl-4H-indolo[1,2-d][1,2,4]triazolo[4,3-a][1,4]benzodiazepine-7-carboxamide] | 54 nM | 320 nM
O=C(O)c1ccc2c(C3CCCCC3)c3n(c2c1)Cc1nncn1-c1ccccc1-3 [Example 1, 10-Cyclohexyl-4H-indolo[1,2-d][1,2,4]triazolo[4,3-a][1,4]benzodiazepine-7-carboxylic acid] | 140 nM | 910 nM
CN(C)S(=O)(=O)NC(=O)c1ccc2c(C3CCCCC3)c3n(c2c1)Cc1nccn1-c1ccccc1-3 [Example 6, 10-Cyclohexyl-N-((dimethylamino)sulfonyl)-4H-imidazo[1,2-a]indolo[1,2-d][1,4]benzodiazepine-7-carboxamide] | 19 nM | 390 nM
O=C(O)c1ccc2c(C3CCCCC3)c3n(c2c1)Cc1nccn1-c1ccccc1-3 [Example 5, 10-Cyclohexyl-4H-imidazo[1,2-a]indolo[1,2-d][1,4]benzodiazepine-7-carboxylic acid] | 26 nM | 740 nM
